Earlier results in patent EP4748406A1, “MEDICAL ADHESIVE AGENT AND MEDICAL ADHESIVE SHEET” (Nitto Denko Corporation, priority 2023, dated 2025).

water solubility at 20°C: 9.7 g/100 mL
Structure (SMILES): C=C(C)C(=O)O [MAA, methacrylic acid]
